In one series the target is hCav2.1 calcium channels (Homo sapiens, UniProt O00555). Nature of the series: whole-cell patch clamp, hCav2.1 in CHO cells. The following applies: IC50, hCav2.1 calcium peak currents, 0.3–1000 μmol/L, holding potential −80 mV. The series is classed as cell-based.
Another series concerns Racine stage 5 seizures. Nature of the series: proconvulsant effects. Format: in vivo.
Series [1] addresses human α5β2γ2 GABAA receptors (Homo sapiens, UniProt P18507+P31644+P47870). In words: submaximal GABA currents in Ltk cells. Format: cell-based.
The target of series [2] is human α2β2γ2 GABAA receptors (Homo sapiens, UniProt P18507+P47869+P47870). In words: submaximal GABA currents in Ltk cells. Format: cell-based.
Series [3] concerns transient Na+ current (INaT). Particulars: ref Döser et al. [2013b], [2015]; cited from earlier work.
Series [4] deals with T1, human GlyRα3 glycine receptors (Homo sapiens, UniProt O75311).
T1 sequence (O75311 34-464): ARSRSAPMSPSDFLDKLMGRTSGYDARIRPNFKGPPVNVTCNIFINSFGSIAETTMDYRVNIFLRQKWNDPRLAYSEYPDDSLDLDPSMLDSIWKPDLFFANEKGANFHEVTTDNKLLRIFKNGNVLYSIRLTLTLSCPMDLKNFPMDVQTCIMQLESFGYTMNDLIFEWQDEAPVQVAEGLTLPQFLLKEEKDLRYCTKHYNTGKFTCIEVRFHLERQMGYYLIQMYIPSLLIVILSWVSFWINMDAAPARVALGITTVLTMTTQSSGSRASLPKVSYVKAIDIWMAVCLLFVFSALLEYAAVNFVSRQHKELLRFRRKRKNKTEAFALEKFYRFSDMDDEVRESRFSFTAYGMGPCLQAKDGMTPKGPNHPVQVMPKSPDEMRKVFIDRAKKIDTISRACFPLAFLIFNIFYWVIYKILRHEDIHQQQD
In words: submaximal glycine currents in CHO cells. The series is classed as cell-based.

Another series relates to kindling epileptogenesis. In words: bilateral corneal kindling. The series is classed as in vivo, mouse. Particulars: Table 5 summary; values are ED50 (mg/kg).
The target of series [5] is human α1β2γ2 GABAA receptors (Homo sapiens, UniProt P14867+P18507+P47870). Nature of the series: submaximal GABA currents in Ltk cells. The series is classed as cell-based.
Series [6] deals with hKv7.2 potassium channels (Homo sapiens, UniProt O43526). In words: whole-cell patch clamp, hKv7.2 in CHO cells. Format: cell-based.
The target in series [7] is human GRIN1/GRIN2B NMDA receptor (Homo sapiens, UniProt Q05586+Q13224). In words: submaximal NMDA-receptor-mediated currents in HEK cells. The series is classed as cell-based.
Series [8] deals with human α3β2γ2 GABAA receptors (Homo sapiens, UniProt P18507+P34903+P47870). Nature of the series: submaximal GABA currents in Ltk cells. The series is classed as cell-based.
The next series addresses human GRIA1 receptor (Homo sapiens, UniProt P42261). In words: AMPA-receptor-mediated currents in CHO cells. Format: cell-based.
Series [9] has as its system sodium channels endogenously expressed in N1E-115 mouse neuroblastoma cells. The following applies: 250 μmol/L; ref Hebeisen et al. [2014]; cited from earlier work.
Series [10] has as its target human Nav1.3 sodium channels (Homo sapiens, UniProt Q9NY46). In words: whole-cell patch clamp, Nav1.3 in CHO-K1 cells. The following applies: 250 μmol/L; for Fast inactivation V0.5 / Slow inactivation V0.5: n = 3–6; for time constant for entering the slow inactivated state: control 20.29 sec. The series is classed as cell-based.
The subject of a further series is MES-induced seizures. The following applies: mouse, ESL 50 mg/kg p.o.; ref Pires et al. [2011]; cited from earlier work.
In series [11] the test system is latrunculin A-induced seizures. Particulars: ESL 100 mg/kg oral, ref Sierra-Paredes et al. [2011], 2014, cited from earlier work.
Series [12] in a line: human plasma and CSF pharmacokinetics. Format: in vivo. Particulars: LCM 600 mg twice daily, protein binding ∼15%.
The conditions of series [13]: ref Doty et al. [2007]; cited from earlier work.
The conditions of series [14]: ref Nunes et al. [2013], cited from earlier work.

Where two headings read alike, the source gives them in different places. Marks after values point to notes of the source that are not given here.

Chain of human α3β2γ2 GABAA receptors (P34903 29-492): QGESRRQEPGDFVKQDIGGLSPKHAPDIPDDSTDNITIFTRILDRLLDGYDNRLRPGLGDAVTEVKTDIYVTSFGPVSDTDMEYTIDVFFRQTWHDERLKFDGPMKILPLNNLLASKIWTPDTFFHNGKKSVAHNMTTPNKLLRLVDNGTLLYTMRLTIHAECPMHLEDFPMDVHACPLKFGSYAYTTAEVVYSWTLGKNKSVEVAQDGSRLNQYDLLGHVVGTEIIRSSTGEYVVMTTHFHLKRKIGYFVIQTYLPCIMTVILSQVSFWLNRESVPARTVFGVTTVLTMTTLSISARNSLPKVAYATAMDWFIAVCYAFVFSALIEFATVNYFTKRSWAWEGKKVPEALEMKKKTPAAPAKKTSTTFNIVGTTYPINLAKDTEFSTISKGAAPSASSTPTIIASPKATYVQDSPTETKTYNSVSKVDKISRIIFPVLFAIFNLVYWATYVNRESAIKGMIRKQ
Chain of human α3β2γ2 GABAA receptors (P47870 25-512 limits assumed): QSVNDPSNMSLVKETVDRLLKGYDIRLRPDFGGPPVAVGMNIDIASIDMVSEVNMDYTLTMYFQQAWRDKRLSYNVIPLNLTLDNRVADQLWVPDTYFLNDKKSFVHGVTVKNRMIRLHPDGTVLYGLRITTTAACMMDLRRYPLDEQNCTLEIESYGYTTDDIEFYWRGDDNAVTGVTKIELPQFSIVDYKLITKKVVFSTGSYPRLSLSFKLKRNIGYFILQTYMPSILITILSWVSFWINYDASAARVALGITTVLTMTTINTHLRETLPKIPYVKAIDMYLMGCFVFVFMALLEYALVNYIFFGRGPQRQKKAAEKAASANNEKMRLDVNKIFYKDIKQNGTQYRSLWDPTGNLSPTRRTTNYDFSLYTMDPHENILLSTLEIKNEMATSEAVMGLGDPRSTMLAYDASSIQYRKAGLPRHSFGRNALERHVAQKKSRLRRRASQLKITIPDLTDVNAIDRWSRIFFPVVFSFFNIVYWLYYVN
Chain of human α3β2γ2 GABAA receptors (P18507 40-475): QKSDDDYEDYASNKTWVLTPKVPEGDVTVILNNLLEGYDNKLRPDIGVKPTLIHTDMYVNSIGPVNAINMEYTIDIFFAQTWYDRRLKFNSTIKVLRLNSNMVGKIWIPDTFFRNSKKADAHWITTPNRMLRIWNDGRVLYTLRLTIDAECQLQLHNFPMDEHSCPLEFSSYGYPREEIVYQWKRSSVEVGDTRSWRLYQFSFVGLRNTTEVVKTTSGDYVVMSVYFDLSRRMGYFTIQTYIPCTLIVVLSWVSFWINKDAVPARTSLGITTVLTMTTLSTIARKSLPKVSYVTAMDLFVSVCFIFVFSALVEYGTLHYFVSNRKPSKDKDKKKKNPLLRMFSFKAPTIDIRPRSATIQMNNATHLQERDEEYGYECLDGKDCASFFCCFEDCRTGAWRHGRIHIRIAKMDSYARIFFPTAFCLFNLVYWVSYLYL
Chain of human α2β2γ2 GABAA receptors (P47869 29-451): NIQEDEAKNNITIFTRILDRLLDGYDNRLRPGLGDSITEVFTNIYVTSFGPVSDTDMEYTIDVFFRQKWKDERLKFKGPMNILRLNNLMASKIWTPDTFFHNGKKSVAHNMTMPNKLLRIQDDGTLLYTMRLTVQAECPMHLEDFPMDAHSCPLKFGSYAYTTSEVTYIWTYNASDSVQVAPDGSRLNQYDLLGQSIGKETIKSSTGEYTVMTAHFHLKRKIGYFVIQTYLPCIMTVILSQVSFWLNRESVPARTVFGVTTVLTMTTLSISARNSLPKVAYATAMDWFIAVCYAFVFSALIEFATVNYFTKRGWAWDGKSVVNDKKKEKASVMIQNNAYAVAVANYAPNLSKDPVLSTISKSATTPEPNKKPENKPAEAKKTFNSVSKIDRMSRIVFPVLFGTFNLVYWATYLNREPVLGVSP
Chain of human α2β2γ2 GABAA receptors (P47870 25-512 limits assumed): as the sequence (P47870 25-512 limits assumed) above
Chain of human α2β2γ2 GABAA receptors (P18507 40-475): as the sequence (P18507 40-475) above
Chain of human Nav1.3 sodium channels (Q9NY46 whole entry): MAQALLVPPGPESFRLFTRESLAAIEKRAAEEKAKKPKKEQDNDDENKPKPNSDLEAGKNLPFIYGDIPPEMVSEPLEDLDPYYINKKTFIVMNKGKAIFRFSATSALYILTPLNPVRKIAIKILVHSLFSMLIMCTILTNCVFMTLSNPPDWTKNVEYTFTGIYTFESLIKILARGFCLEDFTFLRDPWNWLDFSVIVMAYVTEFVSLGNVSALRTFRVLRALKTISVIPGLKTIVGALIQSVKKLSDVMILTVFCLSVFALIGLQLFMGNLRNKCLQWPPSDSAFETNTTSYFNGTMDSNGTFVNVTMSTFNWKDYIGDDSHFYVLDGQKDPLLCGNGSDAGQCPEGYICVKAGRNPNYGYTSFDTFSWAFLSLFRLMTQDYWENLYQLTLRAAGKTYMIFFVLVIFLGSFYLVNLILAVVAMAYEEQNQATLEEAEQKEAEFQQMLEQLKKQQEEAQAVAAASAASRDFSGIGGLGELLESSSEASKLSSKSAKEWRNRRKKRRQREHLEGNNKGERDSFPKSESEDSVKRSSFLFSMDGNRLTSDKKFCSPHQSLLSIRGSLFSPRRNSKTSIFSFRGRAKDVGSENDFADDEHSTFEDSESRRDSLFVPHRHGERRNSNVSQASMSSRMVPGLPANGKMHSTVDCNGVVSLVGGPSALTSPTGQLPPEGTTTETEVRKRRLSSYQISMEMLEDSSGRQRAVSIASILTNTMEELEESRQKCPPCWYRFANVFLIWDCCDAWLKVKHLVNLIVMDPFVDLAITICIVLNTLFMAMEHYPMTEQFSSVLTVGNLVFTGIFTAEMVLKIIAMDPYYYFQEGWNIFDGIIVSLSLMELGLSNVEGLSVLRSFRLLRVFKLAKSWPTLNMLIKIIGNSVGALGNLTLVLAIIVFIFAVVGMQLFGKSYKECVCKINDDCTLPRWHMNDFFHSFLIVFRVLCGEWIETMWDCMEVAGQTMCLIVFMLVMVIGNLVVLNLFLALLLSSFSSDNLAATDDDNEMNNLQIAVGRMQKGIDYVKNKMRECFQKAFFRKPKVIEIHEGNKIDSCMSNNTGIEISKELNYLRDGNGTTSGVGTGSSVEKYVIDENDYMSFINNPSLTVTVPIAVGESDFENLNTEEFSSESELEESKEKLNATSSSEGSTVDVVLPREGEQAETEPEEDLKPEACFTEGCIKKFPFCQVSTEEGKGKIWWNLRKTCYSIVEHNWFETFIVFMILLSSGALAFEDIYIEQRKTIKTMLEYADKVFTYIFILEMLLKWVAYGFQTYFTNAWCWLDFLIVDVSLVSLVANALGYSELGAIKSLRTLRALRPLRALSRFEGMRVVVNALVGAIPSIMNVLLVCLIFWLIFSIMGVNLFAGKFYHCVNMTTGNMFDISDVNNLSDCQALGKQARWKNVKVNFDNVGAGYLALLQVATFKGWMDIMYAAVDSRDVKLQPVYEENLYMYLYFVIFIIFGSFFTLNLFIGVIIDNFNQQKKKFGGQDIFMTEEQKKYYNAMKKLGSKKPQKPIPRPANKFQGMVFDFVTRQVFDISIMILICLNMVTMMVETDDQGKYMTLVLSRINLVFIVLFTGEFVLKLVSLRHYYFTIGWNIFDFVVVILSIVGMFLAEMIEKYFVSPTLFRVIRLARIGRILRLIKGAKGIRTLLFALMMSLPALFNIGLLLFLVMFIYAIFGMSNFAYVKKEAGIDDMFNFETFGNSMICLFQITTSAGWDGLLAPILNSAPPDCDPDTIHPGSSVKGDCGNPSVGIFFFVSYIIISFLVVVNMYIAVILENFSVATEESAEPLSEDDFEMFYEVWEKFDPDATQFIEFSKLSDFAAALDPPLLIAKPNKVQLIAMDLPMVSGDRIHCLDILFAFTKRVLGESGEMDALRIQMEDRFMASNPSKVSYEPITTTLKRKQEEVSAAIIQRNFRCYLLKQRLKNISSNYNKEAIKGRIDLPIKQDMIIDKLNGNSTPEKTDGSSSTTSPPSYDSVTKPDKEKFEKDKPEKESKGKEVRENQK
Chain of human α5β2γ2 GABAA receptors (P31644 32-462): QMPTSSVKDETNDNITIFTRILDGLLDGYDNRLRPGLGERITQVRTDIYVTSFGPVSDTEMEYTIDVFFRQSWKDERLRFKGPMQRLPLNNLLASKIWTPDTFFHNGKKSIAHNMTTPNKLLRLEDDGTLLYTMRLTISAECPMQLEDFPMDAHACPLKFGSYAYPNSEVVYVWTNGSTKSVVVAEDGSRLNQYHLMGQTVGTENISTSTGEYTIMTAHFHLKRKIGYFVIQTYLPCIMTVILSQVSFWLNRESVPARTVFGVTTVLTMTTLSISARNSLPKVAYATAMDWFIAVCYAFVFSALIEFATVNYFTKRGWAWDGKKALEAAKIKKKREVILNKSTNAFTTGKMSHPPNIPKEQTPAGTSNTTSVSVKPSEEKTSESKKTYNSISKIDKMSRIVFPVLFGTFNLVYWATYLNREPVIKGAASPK
Chain of human α5β2γ2 GABAA receptors (P47870 25-512 limits assumed): as the sequence (P47870 25-512 limits assumed) above
Chain of human α5β2γ2 GABAA receptors (P18507 40-475): as the sequence (P18507 40-475) above
Chain of human α1β2γ2 GABAA receptors (P14867 28-456): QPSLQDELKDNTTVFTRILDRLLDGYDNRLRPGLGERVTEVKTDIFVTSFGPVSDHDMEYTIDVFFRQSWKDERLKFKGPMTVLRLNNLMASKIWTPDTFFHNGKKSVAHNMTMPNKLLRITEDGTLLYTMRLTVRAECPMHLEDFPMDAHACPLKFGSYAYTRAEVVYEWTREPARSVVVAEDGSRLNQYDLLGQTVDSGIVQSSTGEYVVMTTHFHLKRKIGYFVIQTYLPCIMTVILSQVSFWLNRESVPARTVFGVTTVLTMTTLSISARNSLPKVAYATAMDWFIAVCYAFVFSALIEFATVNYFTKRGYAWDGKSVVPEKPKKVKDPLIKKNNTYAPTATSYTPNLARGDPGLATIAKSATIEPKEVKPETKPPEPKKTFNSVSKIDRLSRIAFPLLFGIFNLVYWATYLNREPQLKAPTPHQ
Chain of human α1β2γ2 GABAA receptors (P47870 25-512 limits assumed): as the sequence (P47870 25-512 limits assumed) above
Chain of human α1β2γ2 GABAA receptors (P18507 40-475): as the sequence (P18507 40-475) above

Turning to `NC(=O)N1c2ccccc2C=Cc2ccccc21` [CBZ, carbamazepine], the IC50 on hCav2.1 calcium channels stood at 452 µM; in [4], 441 µM; in series [6], 572 µM; in [7] it was 214 µM. Further, the “Racine stage 5 seizures (proconvulsant effects)” value in the series with Racine stage 5 seizures (at 45 mg/kg) is 80% ^**. Also, the “GABA inward current stimulation, α5β2γ2, Mean ± SEM” value in [1] (50 μmol/L) amounted to 103.8 ± 1.5; in series [1] (100 μmol/L), 103.8 ± 4.5; in series [1] (250 μmol/L), 93.6 ± 4.3; in series [1] (500 μmol/L), 80.7 ± 5.9; in [1] (1000 μmol/L) it was 63.0 ± 4.5. In addition, the “GABA inward current stimulation, α2β2γ2, Mean ± SEM” value is listed as 97.9 ± 3.3 in series [2] (50 μmol/L); 111.4 ± 2.7 in [2] (100 μmol/L); 109.0 ± 7.6 in [2] (250 μmol/L); 103.6 ± 7.6 in series [2] (500 μmol/L); 104.2 ± 2.7 in [2] (1000 μmol/L). The “inhibition of firing of DGCs, control versus pilocarpine-treated rats” value in series [3] is “significantly reduced in chronic experimental epilepsy”. Further, the “Corneal kindling (antiepileptogenic models)” value in the series on kindling epileptogenesis came to 140 mg/kg. Further, the “GABA inward current stimulation, α1β2γ2, Mean ± SEM” value in [5] (50 μmol/L) came out at 104.3 ± 5.0; in series [5] (100 μmol/L), 117.4 ± 4.9; in series [5] (250 μmol/L), 115.7 ± 5.3; in series [5] (500 μmol/L), 132.4 ± 5.3; in series [5] (1000 μmol/L), 150.3 ± 15.5. Moreover, in series [5] (1000 μmol/L), the “increase of submaximal α1β2γ2 GABA currents” value is reported as 50%. Moreover, the “GABA inward current stimulation, α3β2γ2, Mean ± SEM” value in series [8] (50 μmol/L) worked out at 93.3 ± 4.1; in [8] (100 μmol/L) it was 112.8 ± 5.4; in series [8] (250 μmol/L), 131.1 ± 9.4; in series [8] (500 μmol/L), 120.3 ± 11.8; in [8] (1000 μmol/L) it was 166.7 ± 21.0. Also, the “increase of submaximal α3β2γ2 GABA currents” value in series [8] (1000 μmol/L) is reported as 66%. In addition, at human GRIA1 receptor (CHO cells, human GRIA1), the “IC50, AMPA currents” value is recorded as “neither eslicarbazepine nor CBZ significantly changed AMPA currents”. Further, in series [9], the “recovery of fast inactivated channels” value is reported as “required longer pulses to recover”. In addition, the “Fast inactivation V0.5” value in series [10] (mean ± SEM) is reported as −72.33 ± 5.04 mV. In series [10] (mean ± SEM), the “Slow inactivation V0.5” value is −21.56 ± 3.23 mV. The “Fast inactivation, individual shifts” value in series [10] (versus control (bath), mean ± SEM) is listed as −14.35 mV. For the same compound, the “time constant for entering the slow inactivated state” value (from here on “time constant”) in series [10] was “not affected”.
Regarding `N[C@H](CCCP(=O)(O)O)C(=O)O` [D-AP5, D-(−)-2-amino-5-phosphonopentanoic], the IC50 in [7] (read-out: IC50, NMDA receptor-mediated currents, submaximal currents, HEK cells GRIN1/GRIN2B) is 7 µM.
With `CC(=O)O[C@H]1Cc2ccccc2N(C(N)=O)c2ccccc21` [ESL, (S)-10-acetoxy-10,11-dihydro-5H-dibenz/b,f/azepine-5-carboxamide], in the series on Racine stage 5 seizures (at 240 mg/kg), the “Racine stage 5 seizures (proconvulsant effects)” value was 22% ^*. Further, the “Corneal kindling (antiepileptogenic models)” value in the series with kindling epileptogenesis was 30 mg/kg. For the same compound, the “protection against MES-induced seizures” value with MES-induced seizures is reported as 97%. Moreover, in series [11] (microdialysate), the “hippocampal extracellular glutamate levels” value is “significantly reduced glutamate levels”. For the same compound, the “acute and chronic latrunculin A-induced seizures and EEG chronic signs of paroxysmal activity” value in series [11] (Swiss mice, previous to latrunculin A microperfusion) is listed as “completely prevented”.
In the case of `COC[C@@H](NC(C)=O)C(=O)NCc1ccccc1` [LCM, lacosamide], the “LCM-free drug, peak plasma” value in series [12] came out at 49 µmol/L. Moreover, the LCM protein binding in series [13] is ~15%. Moreover, the “recovery of fast inactivated channels” value in series [9] is recorded as “recovered similar to control conditions”. Besides, in series [10] (mean ± SEM), the “Fast inactivation V0.5” value was −53.54 ± 3.95 mV and the “Slow inactivation V0.5” value is reported as −37.04 ± 2.72 mV. Further, the “time constant” value in series [10] was found to be 10.91 s.
Take `NS(=O)(=O)c1cccc2c1c([N+](=O)[O-])cc1nc(O)c(O)nc12` [NBQX, 2,3-Dioxo-6-nitro-1,2,3,4-tetrahydrobenzo[f]quinoxaline-7-sulfonamide]: it took 19 µM to reach half-maximal inhibition against human GRIA1 receptor (IC50).
On to `NC(=O)N1c2ccccc2CC(=O)c2ccccc21` [OXC, oxcarbazepine], for which the “recovery of fast inactivated channels” value in series [9] is “required longer pulses to recover”. Moreover, in series [10] (mean ± SEM), the “Fast inactivation V0.5” value is on record as −55.95 ± 2.91 mV and the “Slow inactivation V0.5” value was −19.47 ± 4.55 mV. In addition, the “time constant” value in [10] is recorded as “not affected”. Besides, the “CSF Cmax of nonmetabolized OXC” value in [14] (ESL 1200 mg QD) was 380 nM. Besides, the “CSF Cmax of nonmetabolized OXC” value in [14] (OXC 600 mg BID) was 1820 nM.
Compound `O=C1C[C@@H]2OCC=C3CN4CC[C@]56c7ccccc7N1[C@H]5[C@H]2[C@H]3C[C@H]46` [Strychnine] displayed an IC50 in series [4] of 0.052 µM.
For `Cc1ncc2n1-c1ccc(Cl)cc1C(c1ccccc1F)=NC2` [midazolam], in series [5] (3 μmol/L), the “increase of submaximal α1β2γ2 GABA currents” value was ~80%.

Source of the values: PMC4448990 (Pharmacology Research & Perspectives, 2015).
